Reference: ChEMBL document CHEMBL4627389, “Constituents of Two Dioscorea Species That Potentiate Antibiotic Activity against MRSA” (2020)
One block for each molecule: values may come before it. Active and inactive are the calls of the source. The rule behind the calls is not given here.

What was measured:
[1] = system: Staphylococcus aureus; assay: Antibacterial activity against Staphylococcus aureus 1199B assessed as inhibition of efflux pump by measuring increase in intracellular accumulation of ethidium bromide at 0.25 times of MIC after 30 mins by fluorescence assay; assay type: functional, organism-based
[2] = system: Staphylococcus aureus; assay: Antibacterial activity against Staphylococcus aureus 1199B assessed as inhibition of efflux pump by measuring increase in intracellular accumulation of ethidium bromide after 30 mins by fluorescence assay; assay type: functional, organism-based
[3] = system: Staphylococcus aureus; assay: Potentiation of […] antibacterial activity against Staphylococcus aureus XU212 assessed as fold reduction in tetracycline MIC at 20 mg/L by broth dilution assay relative to tetracycline alone; assay type: functional
[4] = system: Staphylococcus aureus; assay: Potentiation of […] antibacterial activity against Staphylococcus aureus XU212 assessed as tetracycline MIC at 20 mg/L by broth dilution assay (reference value: […]); assay type: functional
[5] = system: Staphylococcus aureus; assay: Potentiation of norfloxacin-induced antibacterial activity against Staphylococcus aureus 1199B assessed as fold reduction in norfloxacin MIC at 20 mg/L by broth dilution assay relative to norfloxacin alone; assay type: functional
[6] = system: Staphylococcus aureus; assay: Potentiation of norfloxacin-induced antibacterial activity against Staphylococcus aureus 1199B assessed as norfloxacin MIC at 20 mg/L by broth dilution assay (reference value: 32 mg/L); assay type: functional
[7] = system: Staphylococcus aureus; assay: Potentiation of […] antibacterial activity against Staphylococcus aureus XU212 assessed as tetracycline MIC at 30 mg/L by broth dilution assay (reference value: […]); assay type: functional
[8] = system: Staphylococcus aureus; assay: Potentiation of norfloxacin-induced antibacterial activity against Staphylococcus aureus 1199B assessed as fold reduction in norfloxacin MIC at 30 mg/L by broth dilution assay relative to norfloxacin alone; assay type: functional
[9] = system: Staphylococcus aureus; assay: Potentiation of norfloxacin-induced antibacterial activity against Staphylococcus aureus 1199B assessed as norfloxacin MIC at 30 mg/L by broth dilution assay (reference value: 32 mg/L); assay type: functional
[10] = system: Staphylococcus aureus; assay: Potentiation of […] antibacterial activity against Staphylococcus aureus XU212 assessed as fold reduction in tetracycline MIC at 100 mg/L by broth dilution assay relative to tetracycline alone; assay type: functional
[11] = system: Staphylococcus aureus; assay: Potentiation of […] antibacterial activity against Staphylococcus aureus XU212 assessed as tetracycline MIC at 100 mg/L by broth dilution assay (reference value: […]); assay type: functional
[12] = system: Staphylococcus aureus; assay: Potentiation of norfloxacin-induced antibacterial activity against Staphylococcus aureus 1199B assessed as fold reduction in norfloxacin MIC at 100 mg/L by broth dilution assay relative to norfloxacin alone; assay type: functional
[13] = system: Staphylococcus aureus; assay: Potentiation of norfloxacin-induced antibacterial activity against Staphylococcus aureus 1199B assessed as norfloxacin MIC at 100 mg/L by broth dilution assay (reference value: 32 mg/L); assay type: functional
[14] = system: Staphylococcus aureus; assay: Potentiation of […] antibacterial activity against Staphylococcus aureus XU212 assessed as fold reduction in tetracycline MIC at 64 mg/L by broth dilution assay relative to tetracycline alone; assay type: functional
[15] = system: Staphylococcus aureus; assay: Potentiation of […] antibacterial activity against Staphylococcus aureus XU212 assessed as tetracycline MIC at 64 mg/L by broth dilution assay (reference value: […]); assay type: functional
[16] = system: Staphylococcus aureus; assay: Potentiation of norfloxacin-induced antibacterial activity against Staphylococcus aureus 1199B assessed as fold reduction in norfloxacin MIC at 64 mg/L by broth dilution assay relative to norfloxacin alone; assay type: functional
[17] = system: Staphylococcus aureus; assay: Potentiation of norfloxacin-induced antibacterial activity against Staphylococcus aureus 1199B assessed as norfloxacin MIC at 64 mg/L by broth dilution assay (reference value: 32 mg/L); assay type: functional

SMILES: COc1cc(CCC(=O)CC(O)CC(=O)CCc2ccc(O)c(OC)c2)ccc1O
inhibition [1]: Active | MIC [7]: 128 µg/mL | fold change (FC) [8]: 4 | MIC [9]: 8 µg/mL

SMILES: COc1cc(CCC(=O)C[C@H](O)CC(=O)CCc2ccc(O)cc2)ccc1O
fold change (FC) [10]: 512 | MIC [11]: < 0.25 µg/mL | fold change (FC) [12]: 2 | MIC [13]: 16 µg/mL

SMILES: COc1ccc(/C=C/C(=O)OCCCCCCCCCCCCCCCCCCCCCCCCCCCCCCCC(=O)O)cc1O
fold change (FC) [10]: 16 | MIC [11]: 8 µg/mL | fold change (FC) [12]: 8 | MIC [13]: 4 µg/mL

The next lines start with results.

MIC [4]: 64 µg/mL | MIC [6]: 16 µg/mL
SMILES: COC(=O)[C@H]1[C@H]2C[C@@H]3c4[nH]c5cc(OC)ccc5c4CCN3C[C@H]2C[C@@H](OC(=O)c2cc(OC)c(OC)c(OC)c2)[C@@H]1OC [RESERPINE]
inhibition [1]: Active | inhibition [2]: Dose-dependent effect | fold change (FC) [3]: 2 | fold change (FC) [5]: 2

MIC [15]: 64 µg/mL | MIC [17]: 2 µg/mL
SMILES: COc1cc(CCc2ccccc2O)cc(O)c1OC
inhibition [1]: Active | fold change (FC) [14]: 2 | fold change (FC) [16]: 16
